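Where inhibition never reached the appropriate level, the endpoint shown equals the highest concentration tested. Otherwise, values were interpolated linearly from a five-concentration, 48-hour dose response in 96-well plates. GI50 marks 50% less growth.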 Active and inactive are the calls of the source. Rule as the data show it: active = GI50 up to about 1.1 µM and inactive = higher. Non-standard residues stand in square brackets, D forms with d. Residues, ends and D or L forms follow the SMILES beside them. *: point of attachment. X30 = COC1=CC(=O)N(C(=O)[C@@H](O*)C(C)C)[C@H]1Cc1ccccc1; NMeL = CN[C@@H](CC(C)C)C(=O)O; Cbz = O=C(OCc1ccccc1)*
Tests used:
Test in all cases: NCI tumour cell line growth inhibition, 48 h
[1] = system: SNB-75
[2] = system: RXF 393
[3] = system: NCI/ADR-RES
[4] = system: MDA-MB-231
[5] = system: CAKI-1
[6] = system: SR
[7] = system: HL-60
[8] = system: IGROV-1
[9] = system: BT-549
[10] = system: HCT-15
[11] = system: SK-MEL-28
[12] = system: RPMI-8226
[13] = system: SN12C
[14] = system: LOX IMVI
[15] = system: M14
[16] = system: MDA-MB-435
[17] = system: U-251
[18] = system: TK-10
[19] = system: SK-OV-3

Structure (SMILES) | GI50 [1] | GI50 [2] | GI50 [3] | GI50 [4] | GI50 [5] | GI50 [6] | GI50 [7] | GI50 [8] | GI50 [9] | GI50 [10] | GI50 [11] | GI50 [12] | GI50 [13] | GI50 [14] | GI50 [15] | GI50 [16] | GI50 [17] | GI50 [18] | GI50 [19]
CCOc1cc(C2CC(c3ccc(NS(=O)(=O)c4cc([N+](=O)[O-])ccc4C)cc3)=NN2)ccc1O (stereo not drawn) | 29.8 µM (inactive) | 18.6 µM (inactive) | 24.2 µM (inactive) | 25.5 µM (inactive) | 29.3 µM (inactive) | 22.4 µM (inactive) | 15.5 µM (inactive) | 58.9 µM (inactive) | 21.1 µM (inactive) | 20.5 µM | 32.4 µM (inactive) | 24.6 µM (inactive) | 20 µM (inactive) | 22.5 µM (inactive) | 19 µM (inactive) | 28.1 µM (inactive) | – | – | –
COC1=C(OC)C(=O)C(Cc2c(-c3ccccc3)nc3sc(Cl)cn23)=C(C)C1=O | – | 17.1 µM (inactive) | 17.9 µM (inactive) | 11 µM (inactive) | 21 µM (inactive) | 22.9 µM (inactive) | 7.91 µM (inactive) | 14.9 µM (inactive) | 15.7 µM (inactive) | 14.5 µM | 13.8 µM (inactive) | 13.5 µM (inactive) | 16.4 µM (inactive) | 23.7 µM (inactive) | 15.8 µM (inactive) | 16.5 µM (inactive) | 18.5 µM (inactive) | 20 µM (inactive) | 18.5 µM (inactive)
COc1nc2c(c(=O)[nH]1)N=C(c1ccc(Cl)cc1)CC(c1ccccc1)N2 (stereo not drawn) | 20.8 µM (inactive) | 23.9 µM (inactive) | 23.8 µM (inactive) | 23.8 µM (inactive) | 28.2 µM (inactive) | 61.4 µM (inactive) | – | 31.9 µM (inactive) | 31.2 µM (inactive) | 24.2 µM | 17.7 µM (inactive) | 28.4 µM (inactive) | 22.7 µM (inactive) | 22.5 µM (inactive) | 17.3 µM (inactive) | 34 µM (inactive) | 35.6 µM (inactive) | – | –
C=C1C[C@]23CC[C@@H]4C(CO)(CO)CC(=O)C[C@]4(C)[C@@H]2CC[C@H]1C3 | > 100 µM (inactive) | – | > 100 µM (inactive) | > 100 µM (inactive) | > 100 µM (inactive) | > 100 µM (inactive) | > 100 µM (inactive) | 57.9 µM (inactive) | > 100 µM (inactive) | > 100 µM | > 100 µM (inactive) | > 100 µM (inactive) | > 100 µM (inactive) | > 100 µM (inactive) | > 100 µM (inactive) | > 100 µM (inactive) | > 100 µM (inactive) | > 100 µM (inactive) | > 100 µM (inactive)
O=C1c2ccccc2C(=O)c2c1c1cc(O)ccc1n2Cc1ccc(Cl)cc1Cl | – | 2.14 µM (inactive) | 3.08 µM (inactive) | 3.85 µM (inactive) | 3.9 µM (inactive) | 3.61 µM (inactive) | 46.7 µM (inactive) | 6.98 µM (inactive) | 18.5 µM (inactive) | 5.66 µM | 17.3 µM (inactive) | 7.18 µM (inactive) | 3.88 µM (inactive) | 2.9 µM (inactive) | 15.9 µM (inactive) | 9.42 µM (inactive) | 3.46 µM (inactive) | 9.29 µM (inactive) | 1.75 µM (inactive)
Cc1cn([C@H]2[C@@H](CO)C[C@H]2O)c(=O)[nH]c1=O | > 100 µM (inactive) | > 100 µM (inactive) | > 100 µM (inactive) | > 100 µM (inactive) | > 100 µM (inactive) | > 100 µM (inactive) | > 100 µM (inactive) | > 100 µM (inactive) | > 100 µM (inactive) | > 100 µM | > 100 µM (inactive) | > 100 µM (inactive) | > 100 µM (inactive) | > 100 µM (inactive) | – | > 100 µM (inactive) | > 100 µM (inactive) | > 100 µM (inactive) | –
COC1=CC(=O)N(C(=O)[C@@H](OC(=O)[C@@H]2CCCN2C(=O)[C@@H]2CCCN2C(=O)[C@H](CC(C)C)N(C)C(=O)[C@@H](NC(=O)[C@@H](NC(=O)OCc2ccccc2)C(C)C)C(C)C)C(C)C)[C@H]1Cc1ccccc1 (Cbz-VV[NMeL]PP-X30) | 2.37 µM (inactive) | 14.2 µM (inactive) | > 100 µM (inactive) | 15 µM (inactive) | > 100 µM (inactive) | – | > 100 µM (inactive) | 79.1 µM (inactive) | 23.1 µM (inactive) | > 100 µM | > 100 µM (inactive) | 17.6 µM (inactive) | 34.8 µM (inactive) | > 100 µM (inactive) | 70.1 µM (inactive) | > 100 µM (inactive) | 24.9 µM (inactive) | 64.7 µM (inactive) | 31.3 µM (inactive)
C/C=C/c1c(O)c(=O)c2c(OC)cc(OC)c3c4c(OC)cc(OC)c5c(=O)c(O)c(/C=C/C)c(c1c23)c54 | 12.2 µM (inactive) | – | 14.5 µM (inactive) | 10.4 µM (inactive) | 6.14 µM (inactive) | > 100 µM (inactive) | – | 5.96 µM (inactive) | 3.1 µM (inactive) | 6.49 µM | 16.6 µM (inactive) | 6.92 µM (inactive) | 16.5 µM (inactive) | 8.55 µM (inactive) | 9.42 µM (inactive) | 5.82 µM (inactive) | 7.23 µM (inactive) | > 10 µM (inactive) | 39.9 µM (inactive)

Source: ChEMBL document CHEMBL1201862, “PubChem BioAssay data set” (2004)
